Test results from patent US20110124634A1, “BIOACTIVE COMPOUNDS FOR TREATMENT OF CANCER AND NEURODEGENERATIVE DISEASES” (PONIARD PHARMACEUTICALS, INC., priority 2008, published 2011).
pIC50: −log10 of the molar value.

Experiments:
Type in all cases: cell-based
[1] = tested on: HSP90 client protein Her2 in SKBR-3 cells; experiment: Her-2 degradation assay (Her-2 ELISA) in SKBr-3 cells; conditions: Homo sapiens, SK-BR-3, Table 5, series III, 18 hours
Protocol: Most of the compounds synthesized were evaluated for their ability to induce degradation of the HSP90 client protein Her2 in SKBR-3 cells. Selected compounds were evaluated in a fluorescence polarization (FP) assay for their affinity to HSP90.
SKBr-3 cells grown in McCoy's 5a Medium supplemented with 10% fetal bovine serum (FBS) were plated into 12-well plates at 50% confluency. Increasing concentrations of inhibitors were added 24 hours later (cells are 65-70% confluent) and incubated overnight for 18 hours. The wells were washed with 2 ml of phosphate buffered saline (PBS), and 50 ul of trypsin was added to each well. After trypsinization was complete, 150 ul of FBS was added to each well. Then 200 ul of cells were transferred to 96-well plates and plates were centrifuged at 1200 rpm for 2 minutes using a tabletop centrifuge. The cells were washed once with 250 ul PBS before being lysed with 100 ul of 50 mM Tris (pH 7.4), 0.1% NP-40 lysis buffer. Protein concentrations of clarified lysates were determined using the BCA Assay (Calbiochem) according to the manufacturer's instructions. 2 ug of each lysate was analyzed in the human sp 185 Her-2 ELISA (Bender Medsystems) according to the manufacturer's instructions. ELISA plates were read at 450 nm using a multiwell plate spectrophotometer. Background was determined by measuring the Abs 450 nm of wells with no lysate added. The background value was subtracted from all values. Absorbance 450 nm values for each inhibitor were plotted against the log 10 inhibitor concentration, and IC50 values were calculated using a nonlinear least-square curve fitting program in Prism 5.

MCF-7 = experiment: MTS assay (cytotoxicity), growth inhibition of MCF-7; conditions: Homo sapiens, MCF7, 120 h, Table 5, series III, 5 days, read-out: Growth Inhibition (IC50) MCF-7
Protocol: (§1) Cells were seeded in 96-well plates at 2000 cells/well in a final culture volume of 100 ul for 24 hours before the addition of 25 ul of increasing concentrations of inhibitors that was incubated for 5 days. Viable cell number was determined using the CellTiter 96 AQueous One Solution Cell Proliferation Assay (Promega). Plates were read at 490 nm absorbance 2-4 hours after addition of the MTS reagent using a multiwell plate spectrophotometer. Background was determined by measuring the Abs 490 nm of cell culture medium and MTS in the absence of cells. The background value was subtracted from all values. Absorbance 490 nm values for each inhibitor were plotted against the log 10 inhibitor concentration, and IC50 values were calculated using a nonlinear least-square curve fitting program in Prism 5.

HT29 = experiment: MTS assay (cytotoxicity), growth inhibition of HT29; conditions: Homo sapiens, HT-29, 120 h, Table 5, series III, 5 days, read-out: Growth Inhibition (IC50) HT29
Protocol: as §1

SKBR-3 = experiment: MTS assay (cytotoxicity), growth inhibition of SKBR-3; conditions: Homo sapiens, SK-BR-3, 120 h, Table 5, series III, 5 days, read-out: Growth Inhibition (IC50) SKBR-3
Protocol: as §1

BT474 = experiment: MTS assay (cytotoxicity), growth inhibition of BT474; conditions: Homo sapiens, BT-474, 120 h, Table 5, series III, 5 days, read-out: Growth Inhibition (IC50) BT474
Protocol: as §1

SMILES	pIC50 [1]	pIC50 (MCF-7)	pIC50 (HT29)	pIC50 (SKBR-3)	pIC50 (BT474)
COc1c(C)cnc(CN2C(=O)/C(=C\c3ncc[nH]3)c3c(Cl)nc(N)nc32)c1C [III-3, 2-Amino-4-chloro-5-[1-(1H-imidazol-2-yl)-meth-(Z)-ylidene]-7-(4-methoxy-3,5-dimethyl-pyridin-2-ylmethyl)-5,7-dihydro-pyrrolo[2,3-d]pyrimidin-6-one]	7.05	7.00	7.15	7.40	7.22
COc1c(C)cnc(CN2C(=O)/C(=C\c3[nH]cnc3C)c3c(Cl)nc(N)nc32)c1C [III-4, 2-Amino-4-chloro-7-(4-methoxy-3,5-dimethyl-pyridin-2-ylmethyl)-5-[1-(5-methyl-3H-imidazol-4-yl)-meth-(Z)-ylidene]-5,7-dihydro-pyrrolo[2,3-d]pyrimidin-6-one]	6.47	6.28	6.92	6.80	6.72
COC(=O)c1ccc(/C=C2\C(=O)N(Cc3ncc(C)c(OC)c3C)c3nc(N)nc(Cl)c32)[nH]1 [III-5, 5-[2-Amino-4-chloro-7-(4-methoxy-3,5-dimethyl-pyridin-2-ylmethyl)-6-oxo-6,7-dihydro-pyrrolo[2,3-d]pyrimidin-(5Z)-ylidenemethyl]-1H-pyrrole-2-carboxylic acid methyl ester]	6.32	6.02	6.25	6.64	6.68
COc1c(C)cnc(CN2C(=O)/C(=C\c3cc4c([nH]3)CCC=C4Cl)c3c(Cl)nc(N)nc32)c1C [III-7, 2-Amino-4-chloro-5-[1-(4-chloro-6,7-dihydro-1H-indol-2-yl)-meth-(Z)-ylidene]-7-(4-methoxy-3,5-dimethyl-pyridin-2-ylmethyl)-5,7-dihydro-pyrrolo[2,3-d]pyrimidin-6-one]	5.18	5.27	5.70	5.24	5.33
COc1c(C)cnc(CN2C(=O)/C(=C\c3ccc(C(=O)C(F)(F)F)[nH]3)c3c(Cl)nc(N)nc32)c1C [III-8, 2-Amino-4-chloro-7-(4-methoxy-3,5-dimethyl-pyridin-2-ylmethyl)-5-[1-[5-(2,2,2-trifluoro-acetyl)-1H-pyrrol-2-yl]-meth-(Z)-ylidene]-5,7-dihydro-pyrrolo[2,3-d]pyrimidin-6-one]	6.82	6.09	5.88	6.82	6.33
COc1c(C)cnc(CN2C(=O)/C(=C\c3[nH]ncc3Br)c3c(Cl)nc(N)nc32)c1C [III-10, (Z)-2-Amino-5-((4-bromo-1H-pyrazol-5-yl)methylene)-4-chloro-7-((4-methoxy-3,5-dimethylpyridin-2-yl)methyl)-5H-pyrrolo[2,3-d]pyrimidin-6(7H)-one]	6.55	5.90	6.32	6.77	6.49
COc1c(C)cnc(CN2C(=O)/C(=C\c3cc(Br)c[nH]3)c3c(Cl)nc(N)nc32)c1C [III-11, (Z)-2-Amino-5-((4-bromo-1H-pyrrol-2-yl)methylene)-4-chloro-7-((4-methoxy-3,5-dimethylpyridin-2-yl)methyl)-5H-pyrrolo[2,3-d]pyrimidin-6(7H)-one]	6.72	5.86	6.42	6.85	6.37

Now from value to compound, other results behind:

pIC50 [1]	SMILES	pIC50 (MCF-7)	pIC50 (HT29)	pIC50 (SKBR-3)	pIC50 (BT474)
7.52	COc1c(C)cnc(CN2C(=O)/C(=C\c3cc(C(=O)NCCN4CCOCC4)c[nH]3)c3c(Cl)nc(N)nc32)c1C [III-16, (Z)-5-((2-Amino-4-chloro-7-((4-methoxy-3,5-dimethylpyridin-2-yl)methyl)-6-oxo-6,7-dihydro-5H-pyrrolo[2,3-d]pyrimidin-5-ylidene)methyl)-N-(2-morpholinoethyl)-1H-pyrrole-3-carboxamide]	7.00	7.30	7.70	8.00
6.44	COc1c(C)cnc(CN2C(=O)/C(=C\c3cc(C(=O)NCCO)c[nH]3)c3c(Cl)nc(N)nc32)c1C [III-18, (Z)-5-((2-Amino-4-chloro-7-((4-methoxy-3,5-dimethylpyridin-2-yl)methyl)-6-oxo-6,7-dihydro-5H-pyrrolo[2,3-d]pyrimidin-5-ylidene)methyl)-N-(2-hydroxyethyl)-1H-pyrrole-3-carboxamide]	< 6.30	6.96	7.52	7.52
8.00	CCN(CC)CCNC(=O)c1c[nH]c(/C=C2\C(=O)N(Cc3ncc(C)c(OC)c3C)c3nc(N)nc(Cl)c32)c1 [III-19, (Z)-5-((2-Amino-4-chloro-7-((4-methoxy-3,5-dimethylpyridin-2-yl)methyl)-6-oxo-6,7-dihydro-5H-pyrrolo[2,3-d]pyrimidin-5-ylidene)methyl)-N-(2-(diethylamino)ethyl)-1H-pyrrole-3-carboxamide]	7.15	8.00	9.00	9.15
7.22	COc1c(C)cnc(CN2C(=O)/C(=C\c3cc(C(=O)NCCNC(C)C)c[nH]3)c3c(Cl)nc(N)nc32)c1C [III-21, (Z)-5-((2-Amino-4-chloro-7-((4-methoxy-3,5-dimethylpyridin-2-yl)methyl)-6-oxo-6,7-dihydro-5H-pyrrolo[2,3-d]pyrimidin-5-ylidene)methyl)-N-(2-(isopropylamino)ethyl)-1H-pyrrole-3-carboxamide]	6.82	7.22	8.40	8.00
7.10	COc1c(C)cnc(CN2C(=O)/C(=C\c3cc(C(=O)NCC(O)CO)c[nH]3)c3c(Cl)nc(N)nc32)c1C (centres unmarked) [III-22, (Z)-5-((2-Amino-4-chloro-7-((4-methoxy-3,5-dimethylpyridin-2-yl)methyl)-6-oxo-6,7-dihydro-5H-pyrrolo[2,3-d]pyrimidin-5-ylidene)methyl)-N-(2,3-dihydroxypropyl)-1H-pyrrole-3-carboxamide]	6.40	6.44	7.10	6.96
8.30	COc1c(C)cnc(CN2C(=O)/C(=C\c3cc(C(=O)NCCN4CCCC4)c[nH]3)c3c(Cl)nc(N)nc32)c1C [III-26, (Z)-5-((2-Amino-4-chloro-7-((4-methoxy-3,5-dimethylpyridin-2-yl)methyl)-6-oxo-6,7-dihydro-5H-pyrrolo[2,3-d]pyrimidin-5-ylidene)methyl)-N-(2-(pyrrolidin-1-yl)ethyl)-1H-pyrrole-3-carboxamide]	7.52	9.22	> 9.70	9.00
6.89	COc1c(C)cnc(CN2C(=O)/C(=C\c3cc(C(=O)N(CCO)CCO)c[nH]3)c3c(Cl)nc(N)nc32)c1C [III-27, (Z)-5-((2-Amino-4-chloro-7-((4-methoxy-3,5-dimethylpyridin-2-yl)methyl)-6-oxo-6,7-dihydro-5H-pyrrolo[2,3-d]pyrimidin-5-ylidene)methyl)-N,N-bis(2-hydroxyethyl)-1H-pyrrole-3-carboxamide]	6.48	6.89	7.30	7.10
6.96	COc1c(C)cnc(CN2C(=O)/C(=C\c3cc(C(=O)NCCCN4CCCC4)c[nH]3)c3c(Cl)nc(N)nc32)c1C [III-28, (Z)-5-((2-Amino-4-chloro-7-((4-methoxy-3,5-dimethylpyridin-2-yl)methyl)-6-oxo-6,7-dihydro-5H-pyrrolo[2,3-d]pyrimidin-5-ylidene)methyl)-N-(3-(pyrrolidin-1-yl)propyl)-1H-pyrrole-3-carboxamide]	6.05	7.30	7.40	7.70
7.30	COc1c(C)cnc(CN2C(=O)/C(=C\c3cc(C(=O)NCCN(CCO)CCO)c[nH]3)c3c(Cl)nc(N)nc32)c1C [III-30, (Z)-5-((2-Amino-4-chloro-7-((4-methoxy-3,5-dimethylpyridin-2-yl)methyl)-6-oxo-6,7-dihydro-5H-pyrrolo[2,3-d]pyrimidin-5-ylidene)methyl)-N-(2-(bis(2-hydroxyethyl)amino)ethyl)-1H-pyrrole-3-carboxamide]	6.17	6.68	7.70	7.15
